{"source": "patent US20210206817A1", "about": "“Metabolically Stable Apelin Analogs in the Treatment of Disease Mediated by the Apelin Receptor” (priority 2014, published 2021)", "key": {"[1]": {"system": "isolated perfused rat heart", "assay": "Isolated perfused rat heart, cardiac contractility", "procedure": "Animals were anesthetized with pentobarbital sodium (50 mg/kg intraperitoneally). Heparin (200 IU/kg) was administrated into the femoral vein. Hearts were excised quickly and arrested in ice-cold Krebs-Henseleit solution containing (mM): […] […] Temperature was continuously monitored by a thermoprobe inserted into the right atrium. Hearts beat spontaneously under the sinus rhythm. […] The maximal rate of rise of left ventricular pressure (dP/dtmax) and heart rate were derived from left ventricular pressure. After 20-minutes equilibration period, the hearts were treated by drugs added to the perfusate with an infusion pump (Harvard Apparatus Pump 11) at rate of 100 μL/min for 30 minutes."}, "[2]": {"system": "water-deprived or euhydrated mice", "assay": "Plasma AVP after i.c.v. injection (RIA)", "type": "in vivo, mouse", "conditions": "1 μg i.c.v.", "quoted_text": "Animals were killed 1 min after the injection, and trunk blood (0.5-1 ml) was collected in chilled tubes containing 50 μl of 0.3 M EDTA pH 7.4. […] RIA kit (Peninsula Laboratories International Inc, San Carlo, USA)."}, "[3]": {"system": "rat aortic rings precontracted by noradrenaline (NA)", "assay": "Isometric tension of aortic rings precontracted by noradrenaline", "procedure": "The experiments were performed in rat aortic rings as previously described (39). […] The aortas were cleaned of excess connective tissue and fat and cut into rings of approximately 3-4 mm in length. Special care was taken to avoid damaging the luminal surface of the endothelium. […] One end of the aortic ring was connected to a tissue holder and the other to an isometric force transducer (EMKA Technologies, Paris, France). […] During equilibration period, the rings were washed every 30 min. Then, a first relaxation to acetylcholine (Ach, 10^−4 mol/L) was implemented to check the integrity or the absence of the endothelium in rings precontracted with NA (3×10^−8 mol/L). After rinsing with PSS to baseline tension, rings were equilibrated for 90 min. […] Each concentration of the drug was added at the maximal effect of the precedent concentration. The concentration-response curves were continuously recorded on a PC by means of IOX v 2.4 (EMKA Technologies, Paris) for further analysis (Datanalyst v2.1, EMKA Technologies, Paris)."}, "rat apelin receptor-EGFP [4]": {"biological_target": "T1, rat apelin receptor-EGFP (Rattus norvegicus, UniProt Q9JHG3)", "T1 construct": "expressed in transfected cells", "T1 sequence (Q9JHG3 1-377)": "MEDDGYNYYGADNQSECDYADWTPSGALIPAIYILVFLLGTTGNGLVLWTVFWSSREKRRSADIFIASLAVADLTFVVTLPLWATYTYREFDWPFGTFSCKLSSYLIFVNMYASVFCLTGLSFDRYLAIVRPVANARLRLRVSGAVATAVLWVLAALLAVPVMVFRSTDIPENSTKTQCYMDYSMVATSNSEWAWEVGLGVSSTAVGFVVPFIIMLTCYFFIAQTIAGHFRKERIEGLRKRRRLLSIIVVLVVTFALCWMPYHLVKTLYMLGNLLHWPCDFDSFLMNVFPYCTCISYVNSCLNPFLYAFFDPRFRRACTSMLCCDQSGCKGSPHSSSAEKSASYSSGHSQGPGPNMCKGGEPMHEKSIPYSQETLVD", "assay": "[125I]pE13F radioligand binding on CHO membrane preparations", "procedure": "Crude membrane preparation from CHO stably expressing the wild-type rat apelin receptor-EGFP, were prepared as previously described (39). […] The reaction was stopped by adding ice-cold binding buffer and filtered through glass microfiber filters (Whatman GF/C filters). Radioactivity was counted in Wizard 1470 Wallac gamma counter (Perkin Elmer, Turku, Finland)."}, "[5]": {"system": "anaesthesized normotensive Wistar rats", "assay": "Arterial blood pressure after i.v. injection", "type": "in vivo, rat", "procedure": "The resulting solution was administered to the rats via a catheter inserted into the right femoral vein, and was immediately followed by 0.2 ml Krebs buffer alone to flush the venous catheter. An additional catheter was inserted into the right femoral artery, as previously described (47), for the monitoring of mean arterial blood pressure (MBP) as previously described (48). The arterial catheter was connected to a COBE CDX III pressure transducer (Phymep, Paris, France) linked to the Maclab system (Phymep, Paris, France). HR measurement was triggered by the blood pressure signal. BP was continuously recorded throughout the experiment. […] Mean AUC for each group were then calculated. Unpaired Student's t test was used to determine whether BP observed in response to substances administered […].) has statistically significant difference."}, "[6]": {"assay": "Stability in mouse plasma at 37° C.", "conditions": "mouse, plasma", "procedure": "For each compound, the stock solution (100 μM in water) was diluted in plasma to a final incubation concentration of 5 μM. The incubation at 37° C. was stopped respectively at to and 4 h by adding one volume of ice cold acetonitrile containing 0.1% trifluoroacetic acid. The sample was vortexed for 1 min and then centrifuged at 4° C. before LC-MS injection of the supernatant. Analyses were performed on a Kinetex RP-C18 column (2.6 μm, 100 Å, 50×4.6 mm) using a linear gradient (solvent B in solvent A, solvent A: water/0.05% TFA; solvent B: acetonitrile; flow rate of 2 mL·min^−1: detection at 358 nm). The percentage of remaining test compound relative to t0 was measured by monitoring the peak area of the chromatogram."}, "[7]": {"assay": "Half-life in the blood circulation"}, "rat apelin receptor-EGFP [8]": {"biological_target": "T1, rat apelin receptor-EGFP", "assay": "Inhibition of forskolin-induced cAMP production (HTRF)", "type": "cell-based", "quoted_text": "cAMP was quantified using the cAMP dynamic 2 assay kit (Cisbio Bioassays, Codolet, France) based on homogeneous time-resolved fluorescence (HTRF) technology. The stimulation was done in the stimulation buffer (HBSS, 5 mM Hepes, 0.1% BSA stabilizer, 1 mM IBMX, pH 7.4). Briefly, 2,000/well CHO cells stably expressing the rat apelin receptor-EGFP were added into 384-well plate and stimulated with 10^−6 M forskolin (FSK) and increasing concentrations (10^−14 to 10^−4 M) of apelins or its analogs for 30 min at room temperature. Cells were then lyzed, and cAMP levels were determined following manufacturer instructions."}, "[9]": {"system": "rat glomerular arterioles precontracted by Angiotensin II (AngII)", "assay": "Diameter of glomerular arterioles precontracted by angiotensin II", "conditions": "L-NAME, NO synthase inhibitor", "procedure": "The left kidney of male rats was prepared for microdissection of arterioles as previously described (44). Glomerular arterioles were isolated under stereomicroscopic observation. The afferent and muscular efferent arterioles were isolated with the glomerulus and identify according their morphology and localization in the inner renal cortex as previously described by Helou et al. […] For these experiments afferent and muscular efferent arterioles were microdissected attached to the gomeruli. […] Arteriolar diameters were measured with Adobe Photoshop CS. Diameters were measured on a distance equal to about 100 μm upstream of the glomerulus and triplicate were performed for each arteriole. Calibration was made using a stage micrometer. The average diameter for each experimental condition was used for statistical analysis."}, "rat apelin receptor-EGFP [10]": {"biological_target": "T1, rat apelin receptor-EGFP", "assay": "Apelin receptor-EGFP internalization, confocal microscopy", "type": "cell-based", "conditions": "Table 2; read-out: Internalization EC50", "procedure": "The internalization assay was performed as described previously with CHO cells stably expressing the rat apelin receptor-EGFP (43). […] Cells were then mounted in Aquapolymount (Polysciences, Warrington, Pa., USA) for confocal microscopic analysis (Sec (42) for details)."}, "rat apelin receptor-EGFP [11]": {"biological_target": "T1, rat apelin receptor-EGFP", "assay": "ERK1/2 phosphorylation (Alphascreen)", "type": "cell-based", "conditions": "Table 7; read-out: ERK1/2 phosphorylation EC50", "text": "ERK1/2 phosphorylation was then monitored by Alphascreen technology."}, "[12]": {"system": "water-deprived or euhydrated mice", "conditions": "i.c.v., Iturrioz 2010; cited from earlier work"}}, "note": "Values joined by “and” are separate entries in the source; they are usually repeats but may differ in a detail not shown here. Equal values may be shown once. Read-outs that look alike come from different tables or passages of the source."}
{"smiles": "CSCC[C@H](NC(=O)[C@@H]1CCCN1C(=O)CNC(=O)[C@H](CCCCN)NC(=O)[C@H](Cc1c[nH]cn1)NC(=O)[C@H](CO)NC(=O)[C@H](CC(C)C)NC(=O)[C@H](CCCNC(=N)N)NC(=O)[C@@H]1CCCN1C(=O)[C@H](CCCNC(=N)N)NC(=O)[C@H](CCC(N)=O)NC(=O)[C@H](CCCNC(=N)N)NC(=O)[C@H](CCCNC(=N)N)NC(=O)[C@H](Cc1ccccc1)NC(=O)[C@@H](N)CCCCN)C(=O)N1CCC[C@H]1C(=O)N[C@@H](Cc1ccccc1)C(=O)O", "note": "[K17F, reference compound]", "values": [{"measurement": "chronotropic effect", "setting": "[1]", "value": "No chronotropic effect"}, {"measurement": "effect on cardiac contractility (developed pressure)", "setting": "[1]; K17F 0.01 to 300 nM, P92 200 and 400 nM", "value": "dose-dependently increased developed pressure"}, {"measurement": "plasma AVP levels", "setting": "[2]; water-deprived mice 24 h, saline 425±46 pg/ml", "value": "190 ± 27", "unit": "pg/mL"}, {"measurement": "maximal decrease in AVP release", "setting": "[2]; water-deprived mice", "value": "−94", "unit": "%"}, {"measurement": "vasorelaxing effect at maximal concentration", "setting": "[3]; 100 μM", "value": "93±3", "unit": "%"}, {"measurement": "maximal relaxant effect", "setting": "[3]; precontraction 3×10^−6 M NA", "value": "87±8", "unit": "%"}, {"measurement": "potency (pD2) of relaxation", "setting": "[3]; precontraction 3×10^−6 M NA", "value": "8.30±0.44"}, {"measurement": "Ki", "setting": "rat apelin receptor-EGFP [4]; Table 7, additional experiments vs Table 2, read-out: Binding affinity Ki", "value": "0.06 ± 0.01", "unit": "nM"}, {"measurement": "Ki", "setting": "rat apelin receptor-EGFP [4]; [125I]pE13F binding I (nM), Table 2", "value": "0.26 ± 0.12", "unit": "nM"}, {"measurement": "Ki", "setting": "rat apelin receptor-EGFP [4]; competition with [125I]pE13F, CHO membranes, read-out: Ki for the apelin receptor (affinity)", "value": "0.3 ± 0.1", "unit": "nM"}, {"measurement": "(maximal) decrease in mean arterial blood pressure", "setting": "[5]; 15 nmol/rat i.v.", "value": "7.8 mmHg and 5.4±1 mmHg"}, {"measurement": "time of maximal hypotensive response after injection", "setting": "[5]; 15 nmol/rat i.v.", "value": 1.2, "unit": "min"}, {"measurement": "AUC of BP response", "setting": "[5]; 100 nmol i.v., 15 minutes following injection", "value": "−13712±5271", "unit": "mmHg·s"}, {"measurement": "decrease in MABP", "setting": "[5]; 100 nmol/rat i.v.", "value": 30.5, "unit": "mmHg"}, {"measurement": "plateau value after maximal decrease", "setting": "[5]; 100 nmol/rat i.v.", "value": "−12", "unit": "mmHg"}, {"measurement": "time of return to plateau value", "setting": "[5]; 100 nmol/rat i.v.", "value": "around 22 min"}, {"measurement": "Maximal decrease in BP (mmHg)", "setting": "[5]; Table 5, 15 nmol i.v.", "value": "−7.8", "unit": "mmHg"}, {"measurement": "Time For maximal BP decrease", "setting": "[5]; Table 5, 15 nmol i.v.", "value": 1.2, "unit": "min"}, {"measurement": "Time to return to a plateau value", "setting": "[5]; Table 5, 15 nmol i.v.", "value": 4.2, "unit": "min"}, {"measurement": "plateau value reached (in brackets)", "setting": "[5]; Table 5, 15 nmol i.v.", "value": "baseline"}, {"measurement": "ED50 decrease of MABP", "setting": "[5]; i.v. 5-100 nmol/rat", "value": 30, "unit": "nmol"}, {"measurement": "half-life at 5 μM", "setting": "[6]", "value": 4.6, "unit": "min"}, {"measurement": "half-life", "setting": "[7]", "value": 0.667, "unit": "min"}, {"measurement": "IC50", "setting": "rat apelin receptor-EGFP [8]; 10^−6 M forskolin, read-out: IC50 inhibition of forskolin-induced cAMP production", "value": "300 ± 200", "unit": "pM"}, {"measurement": "IC50", "setting": "rat apelin receptor-EGFP [8]; Table 1, read-out: cAMP production IC50", "value": "300 ± 100", "unit": "pM"}, {"measurement": "IC50", "setting": "rat apelin receptor-EGFP [8]; Table 3, read-out: IC50 cAMP inhibition", "value": "90 ± 10", "unit": "pM"}, {"measurement": "vasorelaxant effect in the presence of L-NAME", "setting": "[9]", "value": "blocked"}, {"measurement": "EC50", "setting": "rat apelin receptor-EGFP [10]", "value": "260 ± 90", "unit": "pM"}, {"measurement": "EC50", "setting": "rat apelin receptor-EGFP [11]", "value": "4080 ± 1170", "unit": "pM"}, {"measurement": "ED50 decrease in plasma AVP", "setting": "[12]", "value": 56, "unit": "pmol"}]}
